# Reference: BindingDB's records for doi:10.1021/jm00001a001 (Biochem Therapeutic, 1995)
# Biological target: Reverse transcriptase/RNaseH (Human immunodeficiency virus 1, UniProt Q72547)
# Assay: Ability to inhibit the HIV-1 reverse transcriptase in cord blood mononuclear cells.
structure (smiles),measurement,value
"Cc1cn([C@H]2C[C@H](N=[N+]=[N-])[C@@H](CO)O2)c(=O)[nH]c1=O [1-((2R,4S,5S)-4-Azido-5-hydroxymethyl-tetrahydro-furan-2-yl)-5-methyl-1H-pyrimidine-2,4-dione]",IC50,30 nM
